In US5614504A, “Method of making inosine monophosphate derivatives and immunopotentiating uses thereof” (The University of South Florida, priority 1995, dated 1997):

What was measured:
CD8+ lymphocytes = assay: PHA response of CD8+ enriched human lymphocytes; type: cell-based; settings: MIMP 1-200 μg/ml, 3 donors, p <0.01
Source text: Human CD4+ and CD8+ lymphocyte subsets were obtained from normal controls using commercial panning techniques (Applied Immune Sciences, Santa Clara, Calif.).
Human peripheral blood lymphocytes are on average approximately 80% T lymphocytes and 20% B lymphocytes and of the T lymphocytes, 2/3 are of the CD4+ helper/inducer phenotype and 1/3 are the CD8+ suppressor/cytotoxic phenotype. Enrichment of CD4+ T cells or CD8+ T cells can be achieved through reduction of the other phenotype (>98%) removal using adherence to monoclonal antibody-coated flasks (panning).

prothymocytes = settings: Touraine et al., 1991; cited from earlier work
[1] = tested on: human peripheral blood lymphocytes (HPBL); assay: PHA responses of HPBL from aged and HIV-infected individuals; type: cell-based; settings: 100 μg/ml
Procedure: The human donors included 22 healthy controls (ages ranging from 20-50), 24 aged individuals (mean age 84 years, ±1), 8 HIV-infected pre-AIDS patients (CDC Class II-mean CD4 count 544), and 8 AIDS patients (mean CD4 count 40).
FIG. 7 depicts the PHA responses of these aged and HIV-infected individuals and the effect of stimulation with 100 μg/ml of MIMP compared to normal controls (C).

[2] = tested on: spleen plaque antibody forming cells (PFC); assay: In vivo stimulation of PFC response to SRBC; parameters: species or system mice
Procedure: Five days later, suspensions of spleen cells were prepared and their viability was determined by trypan blue exclusion test. Cells were suspended at 3×10^6 /ml. 0.2 ml of spleen cell suspension was mixed with 0.8 ml of 0.7% agarose and 0.2 ml of freshly washed SRBC (at 6×10^5 /ml). The mixture was immediately poured into the plate and allowed to solidify. After 60 minutes of incubation at 37° C. in a humid atmosphere of 5% CO2 in the air, the plate was flooded with 1 ml of guinea-pig complement diluted 1:5 with Hank's balanced saline. Hemolytic plaques were counted with an inverted scope using 4× magnification.
Spleen plaque antibody forming cells (PFC) were measured at the end of the five days.

Acute toxicity (LD50) = settings: in vivo
[3] = tested on: human peripheral blood lymphocytes (HPBL); assay: Reversal of suppression of HPBL PHA response by HIV gp41 peptide, interferon α and PGE2; type: cell-based; settings: for effect on gp41 peptide-suppressed PHA proliferation: MIMP 0.1-100 μg/ml
Source text: A 17 amino acid sequence from the gp41 portion of the gp16O peptide of the human immunodeficiency virus (HIV) was synthesized and kindly provided to us by M. Strand (Johns Hopkins University, Baltimore, Md.) (Reugg and Strand, 1990).
Prostaglandin E2 was obtained from Sigma Chemicals (St. Louis, Mo.) and recombinant interferon-α (IFNα, Intron A) was obtained from Schering Corp. (Kenilworth, N.J.).
A synthetic 17 amino acid peptide representing the immunosuppressive site of the intramembranous gp41 portion of the human immunodeficiency virus (HIV) was tested on lymphocytes from controls. […] The effect of MIMP from 0.1-100 μg/ml was examined in combination with varying degrees of inhibition by the peptide.
Virus infections are associated with depressed lymphoproliferative responses.

γ-IFN = assay: PHA-induced γ-IFN production; type: cell-based; settings: preliminary data
[4] = tested on: Friend Leukemia Virus (FLV); assay: Survival of mice infected with Friend Leukemia Virus; type: in vivo, BALB/c mice; settings: 1 mg/kg/day i.p. day 3 to day 13; P<0.004 Wilcoxon
Procedure: Control mice were treated with saline intraperitoneally from day 3 to day 13 following infection, and Me-IMP treated mice were treated with 1 mg/kg/day from day 3 to day 13, and the day of death was recorded.

L. monocytogenes EGD = assay: Listeria infection mortality; type: in vivo, BALB/c mice; settings: for Mortality: Dead/Total: 1 dose, Day -5, day 4
spleen lymphocytes = assay: In vitro response to mitogens following in vivo oral administration; parameters: species or system mice; settings: oral Me-IMP for five days, 0-100 mg/kg
Procedure: In vivo: Compounds were administered orally, by garage, or intraperitoneally. At termination, spleens were obtained as described in Florentin et al. (1982) and cells were prepared for proliferative response with Con A=0.5 μg/ml, PHA=0.5 μg/ml or LPS=0.5 μg/ml.
Spleen lymphocytes were obtained from mice that had been orally administered Me-IMP for five days, range of 0-100 mg/kg body weight, and then sacrificed. The spleen lymphocytes were incubated with PHA (0.5 μg/ml) or Con A (0.5 μg/ml) for 48 hours. Cultures were pulsed with tritiated thymidine for the last 18 hours.

in vitro = in vitro ADME, Crotalus atrox; settings: rattlesnake, pH 7.3; 0.02 units 5'-nucleotidase, 37° C., 10 minutes; four experiments; read-out: Hydrolysis (%)
Procedure: Nucleotide samples (40-60 nmoles) were incubated at 37° C. for 10 minutes with 0.02 units 5'-nucleotidase in a total volume of 100 μl containing […] HEPES, pH 7.3 and […] MgCl2. […] Phosphate was determined by the absorbance of 820 nm. Blanks consisting of nucleotide but no enzyme were tested in parallel to correct for non-enzymatic hydrolysis.

[5] = tested on: mouse spleen lymphocytes (MSL); assay: Mouse spleen lymphocyte proliferation to Con A; type: cell-based
Procedure: In vitro: Both human peripheral blood lymphocytes (HPBL) and mouse spleen lymphocytes (MSL) were employed. […] For HPBL transformation, PHA and PWM were used at 0.5 μg/ml. For MSL transformation, Con A was used at 0.5 μg/ml, phytohemagglutinin (PHA, Murex Diagnostics, Atlanta, Ga.) at 0.5 μg/ml and lipopolysaccharide endotoxin (LPS, Sigma, St. Louis, Mo.) at 10 μg/ml.
They were cultured in microwell plates at 1.5×10^6 cells/ml of minimal essential media (MEM, Gibco Labs, Grand Island, N.Y.) with 5% fetal calf serum (FCS, Hyclone Labs, Logan, Utah) and tested for their proliferative response to mitogens as measured by incorporation of (^3 H) tritiated thymidine (New England Nuclear, Wilmington Del., […]; 2.5 μCi/ml) during a terminal pulse followed by liquid scintillation spectrometry.

COP(=O)(O)OC[C@H]1O[C@@H](n2cnc3c(=O)[nH]cnc32)[C@H](O)[C@@H]1O [Me-IMP, Methyl-5'-inosine-monophosphate]
PHA response of CD8+ lymphocytes (CD8+ lymphocytes): significantly augmented | differentiation markers of prothymocytes (prothymocytes): induce differentiation markers of prothymocytes | response of lymphocytes to MIMP in presence of PHA ([1]; 8 AIDS patients): no response | response of lymphocytes to MIMP in presence of PHA ([1]; 8 HIV-infected (ARC) individuals): significant response | response of lymphocytes to MIMP in presence of PHA ([1]; 9 aged patients (Ag-)): markedly depressed responses to PHA and also to MIMP | response of lymphocytes to MIMP in presence of PHA ([1]; 15 aged patients (Ag+)): normal PHA responses and responses to MIMP | response of lymphocytes to MIMP in presence of PHA ([1]; 22 controls): normal PHA and MIMP responses | effect on PFC response ([2]; 50 mg/kg of body weight ip with SRBC, PFC five days later): significantly stimulated | dose of optimal stimulation of PFC response ([2]; intraperitoneal): 50 mg/kg of body weight | PFC activity at lower doses ([2]; intraperitoneal, below 50 mg/kg): active at lower doses | peak dose for stimulation of PFC response ([2]; oral, with SRBC antigen and daily for five days): 50 mg/kg of body weight | LD50 (Acute toxicity (LD50); ip, intraperitoneally): > 500 mg/kg | LD50 (Acute toxicity (LD50); po, orally): > 5000 mg/kg | effect on gp41 peptide-suppressed PHA proliferation ([3]; inhibition more severe (>50%)): not significant | effect on gp41 peptide-suppressed PHA proliferation ([3]; peptide-induced suppression less than 50%): restored the proliferative responses to near-normal ranges | effect on rIFN-α inhibition of PHA response ([3]; MIMP 1, 10, 100 μg/ml, 10 and 100 units/ml IFN α): reverse the inhibition when it is moderate | effect on PGE2 inhibition of PHA response ([3]; MIMP 1-100 μg/ml, PGE2 10^-5 M): reverse the inhibition | effect on PHA-induced γ-IFN (γ-IFN): only a small effect | mean survival time (MST) [4]: larger mean survival time | MST and survivors (L. monocytogenes EGD; 0.1 to 10 mg/kg, combined i.p. and p.o. from five days prior to challenge): increased MST and survivors | mean survival time (MST) and absolute number of survivors (L. monocytogenes EGD; by mouth and at 1 and 10 mg/kg by i.p. injection, five days prior to challenge): increased mean survival time (MST) and the absolute number of survivors | Mortality: Dead/Total (L. monocytogenes EGD; scheme N1 2: MIMP 1.0 per os): 2/3 | Mortality: Dead/Total (L. monocytogenes EGD; scheme N1 3: MIMP 10.0 per os): 1/8 | Con A response of spleen lymphocytes (spleen lymphocytes): stimulated | PHA response of spleen lymphocytes (spleen lymphocytes): stimulated | metabolised at 10 min (in vitro): 2.1% | relative potency, in vitro mouse lymphocyte proliferation [5]: most potent | proliferative responses of MSL to Con A ([5]; 0.1, 1, 10, 100 μg/ml, Con A 0.5 μg/ml): stimulated the proliferative responses
